Results reported in patent US11753418B2, “Compounds for the modulation of Myc activity” (Syros Pharmaceuticals, Inc., priority 2015, dated 2023).

Molecular target: T1, c-Myc/Max/Ebox DNA (Homo sapiens, UniProt P01106)
T1 construct: his6 (cleaved yes)
Experiment: c-Myc/Max/Ebox DNA AlphaScreen Assay
Format: binding
Details: free c-Myc 20 nM, his6-Max 5 nM, biotinylated Ebox oligo 10 nM, 2 hour incubation
Protocol: Compounds of the invention were assayed for c-Myc/Max/EBox activity as described in the following protocol. Human his6-c-Myc and his6-Max were used with biotinylated DNA containing a single Ebox sequence (biotin[…]) purchased from MWG Operon. Free c-Myc was generated from his6-c-Myc through thrombin cleavage of the his6 tag. For 384-well plate assays, 10 μL of a 2× solution of free c-Myc (20 nM final), Ni^2+ coated Acceptor Beads (25 μg/ml final), and biotinylated Ebox oligo (10 nM final) were added to 384-well plates with a Biotek EL406 liquid handler. 50 nL of compounds from stock plates were added by pin transfer using a Janus Workstation (PerkinElmer), allowing the compounds to interact with c-Myc prior to c-Myc binding with Max. In the current assay, DMSO was not allowed to exceed 2% v/v of the assay. 10 μl of 2× master mix containing streptavidin-coated donor beads (25 μg/ml final) and his6-Max (5 nM) were added. AlphaScreen measurements were performed on an Envision plate reader (PerkinElmer) utilizing the manufacturer's protocol.
Both master mixes were made in room temperature assay buffer (50 mM HEPES, 150 mM NaCl, 0.2% w/v BSA, 0.02% w/v Tween20, 40 μg/ml glycogen, 500 μM DTT, pH 8.0, wherein both DTT and glycogen were added fresh). Alpha beads were added to respective master solutions. All subsequent steps were performed in low light conditions. Solution 1: 2× solution of components with final concentrations of c-Myc Ni-coated Acceptor Beads (25 μg/ml), and biotinylated Ebox oligo (10 nM). Solution 2: 2× solution of streptavidin-coated donor beads (25 μg/ml final) and his6-Max […]. Solution 1 was added to 384-well plate (AlphaPlate-384, PerkinElmer) with Biotek EL406 liquid handler and the plates were centrifuged very briefly. 50 nL of compounds from stock plates were added by pin transfer using a Janus Workstation. Solution 2 (10 μL) was added with the liquid handler. Plates were sealed with foil to block light exposure and prevent evaporation. Plates were very briefly centrifuged followed by 2 hour incubation. AlphaScreen measurements were performed on an Envision 2104 utilizing the manufacturer's protocol. Excitation was at 680 nm for donor bead release of singlet oxygen and emission was read with a bandpass filter from 520-620 nm. Glycogen: Roche Diagnostics #10901393001. Plate 1536: Perkin Elmer, 6004350. Plate 384: Perkin Elmer, 6005350. Nickel-His Alpha Beads: 6760619R. The data from this assay are summarized in Table 3 below (Myc/Max/DNA Activity).

T1 sequence (P01106 whole entry): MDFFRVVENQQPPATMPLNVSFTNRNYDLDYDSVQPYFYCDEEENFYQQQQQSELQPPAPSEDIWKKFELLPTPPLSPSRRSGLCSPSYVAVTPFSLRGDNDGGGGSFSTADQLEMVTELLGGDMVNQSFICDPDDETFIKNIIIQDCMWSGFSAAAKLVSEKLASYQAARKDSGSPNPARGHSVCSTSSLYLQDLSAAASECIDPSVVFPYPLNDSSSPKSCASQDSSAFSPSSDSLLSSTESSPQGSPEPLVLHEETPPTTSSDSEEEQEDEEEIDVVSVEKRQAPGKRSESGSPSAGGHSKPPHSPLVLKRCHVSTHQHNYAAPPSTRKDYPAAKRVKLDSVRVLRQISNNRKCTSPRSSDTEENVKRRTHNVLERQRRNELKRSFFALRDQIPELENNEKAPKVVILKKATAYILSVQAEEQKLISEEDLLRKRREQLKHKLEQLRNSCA

Row | SMILES | IC50
1 | O=C(CCN1CC2COCC2C1)Nc1sc2c(c1-c1nc3cnccc3s1)CCNC2 (stereo not drawn) [Compound 131] | < 500 nM
2 | O=C(CCN1C[C@@H]2CC(F)(F)C[C@@H]2C1)Nc1sc2c(c1-c1nc3cnccc3s1)CCNC2 [Compound 129] | < 500 nM
3 | O=C(CCN1CCC2OCCC2C1)Nc1sc2c(c1-c1nc3cnccc3s1)CCNC2 (stereo not drawn) [Compound 208] | < 500 nM
4 | O=C(CCN1CCC(OC2CCC2)CC1)Nc1sc2c(c1-c1nc3cnccc3s1)CCNC2 [Compound 149] | < 500 nM
5 | CC(=O)Nc1sc2c(c1-c1nc3cnccc3s1)CCN(CCN1CCOCC1)C2 [Compound 112] | 5000 to 25000 nM
6 | CCN1[C@@H](C)Cc2c(sc(NC(C)=O)c2-c2nc3cnccc3s2)[C@@H]1C [Compound 120, N-((5S,7S)-6-ethyl-5,7-dimethyl-3-(thiazolo[4,5-c]pyridin-2-yl)-4,5,6,7-tetrahydrothieno[2,3-c]pyridin-2-yl)acetamide] | 500 to 5000 nM
7 | O=C(CCNC1CNCC1O)Nc1sc2c(c1-c1nc3cnccc3s1)CCNC2 (stereo not drawn) [Compound 146] | < 500 nM
8 | O=C(CCNCC1(O)CC1)Nc1sc2c(c1-c1nc3cnccc3s1)CCNC2 [Compound 210] | < 500 nM
9 | CN(C)C1CN(CCC(=O)Nc2sc3c(c2-c2nc4cnccc4s2)CCNC3)C1 [Compound 161] | < 500 nM
10 | CC(=O)Nc1sc2c(c1-c1nc3cnccc3s1)CC(C)NC2C (mixture of isomers) [Compound 109, N-(5,7-dimethyl-3-(thiazolo[4,5-c]pyridin-2-yl)-4,5,6,7-tetrahydrothieno[2,3-c]pyridin-2-yl)acetamide] | 500 to 5000 nM
11 | Cc1coc(CNCCC(=O)Nc2sc3c(c2-c2nc4cnccc4s2)CCNC3)n1 [Compound 140] | 500 to 5000 nM
12 | CCN1[C@H](C)Cc2c(sc(NC(C)=O)c2-c2nc3cnccc3s2)[C@@H]1C [Compound 254] | > 25000 nM
13 | O=C(CCNCC1CCCC1)Nc1sc2c(c1-c1nc3cnccc3s1)CCNC2 [Compound 175] | < 500 nM
14 | O=C(CCN1CC2(C1)CS(=O)(=O)C2)Nc1sc2c(c1-c1nc3cnccc3s1)CCNC2 [Compound 128] | 500 to 5000 nM
15 | O=C(CCN1CCc2[nH]ncc2C1)Nc1sc2c(c1-c1nc3cnccc3s1)CCNC2 [Compound 178] | < 500 nM
16 | O=C(CCN1CC2(CNC2)C1)Nc1sc2c(c1-c1nc3cnccc3s1)CCNC2 [Compound 123] | < 500 nM

Row | SMILES | IC50
17 | O=C(CCN1CC[C@@H]2NCC[C@@H]21)Nc1sc2c(c1-c1nc3cnccc3s1)CCNC2 [Compound 155] | < 500 nM
18 | CC(NCCC(=O)Nc1sc2c(c1-c1nc3cnccc3s1)CCNC2)c1nc2ccccc2[nH]1 (stereo not drawn) [Compound 197] | 5000 to 25000 nM
19 | CC(=O)Nc1sc2c(c1-c1nc3cnccc3s1)CCN(C(C)C)C2 [Compound 115, N-(6-isopropyl-3-(thiazolo[4,5-c]pyridin-2-yl)-4,5,6,7-tetrahydrothieno[2,3-c]pyridin-2-yl)acetamide] | 500 to 5000 nM
20 | CC(=O)Nc1sc2c(c1-c1nc3cnccc3s1)C(C)CNC2 (stereo not drawn) [Compound 104, N-(4-methyl-3-(thiazolo[4,5-c]pyridin-2-yl)-4,5,6,7-tetrahydrothieno[2,3-c]pyridin-2-yl)acetamide] | 500 to 5000 nM
21 | CN(CCC(=O)Nc1sc2c(c1-c1nc3cnccc3s1)CCNC2)Cc1ccc2[nH]ccc2c1 [Compound 214] | < 500 nM
22 | O=C(CCNCCN1CCCCC1=O)Nc1sc2c(c1-c1nc3cnccc3s1)CCNC2 [Compound 158] | < 500 nM
23 | O=C(CCNCC12CC(CN1)C2)Nc1sc2c(c1-c1nc3cnccc3s1)CCNC2 [Compound 174] | < 500 nM
24 | CN(CCC(=O)Nc1sc2c(c1-c1nc3cnccc3s1)CCNC2)Cc1cnc(Cl)s1 [Compound 157] | 500 to 5000 nM
25 | CC1CC(NCCC(=O)Nc2sc3c(c2-c2nc4cnccc4s2)CCNC3)C1 (stereo not drawn) [Compound 133] | < 500 nM
26 | Cc1nc(CN(C)CCC(=O)Nc2sc3c(c2-c2nc4cnccc4s2)CCNC3)no1 [Compound 182] | 500 to 5000 nM
27 | Cc1cc(C)n(CCNCCC(=O)Nc2sc3c(c2-c2nc4cnccc4s2)CCNC3)n1 [Compound 136] | 500 to 5000 nM
28 | CC(C)C[C@H](CO)NCCC(=O)Nc1sc2c(c1-c1nc3cnccc3s1)CCNC2 [Compound 138] | < 500 nM
29 | O=C(CCN1CC2(CCOC2)C1)Nc1sc2c(c1-c1nc3cnccc3s1)CCNC2 [Compound 125] | < 500 nM
30 | CN1CCN(CCC(=O)Nc2sc3c(c2-c2nc4cnccc4s2)CCNC3)CC1=O [Compound 162] | 500 to 5000 nM
31 | O=C(CCN[C@H]1CC[C@@H](O)C1)Nc1sc2c(c1-c1nc3cnccc3s1)CCNC2 [Compound 204] | < 500 nM

Results, then the compound that gave them:

Row | IC50 | SMILES
32 | < 500 nM | C[C@@H](NCCC(=O)Nc1sc2c(c1-c1nc3cnccc3s1)CCNC2)c1cnc2ccccn12 [Compound 192]
33 | < 500 nM | O=C(CCNCc1ccno1)Nc1sc2c(c1-c1nc3cnccc3s1)CCNC2 [Compound 141]
34 | < 500 nM | CC1CC1NCCC(=O)Nc1sc2c(c1-c1nc3cnccc3s1)CCNC2 (stereo not drawn) [Compound 145]
35 | 500 to 5000 nM | O=C(CCN1CC2CCC(C1)O2)Nc1sc2c(c1-c1nc3cnccc3s1)CCNC2 [Compound 163]
36 | 500 to 5000 nM | Cc1nc(C)c(CNCCC(=O)Nc2sc3c(c2-c2nc4cnccc4s2)CCNC3)s1 [Compound 159]
37 | < 500 nM | N[C@@H]1[C@H]2CN(CCC(=O)Nc3sc4c(c3-c3nc5cnccc5s3)CCNC4)C[C@@H]12 [Compound 187]
38 | < 500 nM | COCC1CCCN1CCC(=O)Nc1sc2c(c1-c1nc3cnccc3s1)CCNC2 (stereo not drawn) [Compound 169]
39 | < 500 nM | Cc1nc(CNCCC(=O)Nc2sc3c(c2-c2nc4cnccc4s2)CCNC3)no1 [Compound 180]
40 | < 500 nM | COCC1CCCCN1CCC(=O)Nc1sc2c(c1-c1nc3cnccc3s1)CCNC2 (stereo not drawn) [Compound 152]
41 | < 500 nM | O=C(CCN1CCC2(CC2)C1)Nc1sc2c(c1-c1nc3cnccc3s1)CCNC2 [Compound 127]
42 | < 500 nM | O=C(CCNC1CCC1)Nc1sc2c(c1-c1nc3cnccc3s1)CCNC2 [Compound 222, 3-(cyclobutylamino)-N-(3-(thiazolo[4,5-c]pyridin-2-yl)-4,5,6,7-tetrahydrothieno[2,3-c]pyridin-2-yl)propanamide]
43 | < 500 nM | O=C(CCNCC1CCNC1)Nc1sc2c(c1-c1nc3cnccc3s1)CCNC2 (stereo not drawn) [Compound 188]
44 | 500 to 5000 nM | Cc1cc(CNCCC(=O)Nc2sc3c(c2-c2nc4cnccc4s2)CCNC3)no1 [Compound 191]
45 | < 500 nM | CC1(C)CCCN1CCC(=O)Nc1sc2c(c1-c1nc3cnccc3s1)CCNC2 [Compound 164]
46 | 500 to 5000 nM | O=C(CCNC(CO)c1ccc(F)cc1)Nc1sc2c(c1-c1nc3cnccc3s1)CCNC2 (stereo not drawn) [Compound 139]
47 | 500 to 5000 nM | CC(C)c1nc(CNCCC(=O)Nc2sc3c(c2-c2nc4cnccc4s2)CCNC3)no1 [Compound 179]
48 | < 500 nM | C[C@H](NCCC(=O)Nc1sc2c(c1-c1nc3cnccc3s1)CCNC2)C1CC1 [Compound 137]
49 | < 500 nM | Cc1ccsc1CNCCC(=O)Nc1sc2c(c1-c1nc3cnccc3s1)CCNC2 [Compound 171]
50 | < 500 nM | O=C(CCN1CCC2(CCOC2)C1)Nc1sc2c(c1-c1nc3cnccc3s1)CCNC2 (stereo not drawn) [Compound 126]
51 | < 500 nM | O=C(CCN1C[C@H]2CN[C@H]2C1)Nc1sc2c(c1-c1nc3cnccc3s1)CCNC2 [Compound 154]
52 | < 500 nM | O=C(CCN[C@H]1COC[C@@H]1O)Nc1sc2c(c1-c1nc3cnccc3s1)CCNC2 [Compound 148]
53 | < 500 nM | O=C(CCNCCN1CCNCC1)Nc1sc2c(c1-c1nc3cnccc3s1)CCNC2 [Compound 193]
54 | 500 to 5000 nM | CC1CN(CCC(=O)Nc2sc3c(c2-c2nc4cnccc4s2)CCNC3)CC(=O)N1 (stereo not drawn) [Compound 144]
55 | < 500 nM | Cc1ccc(CNCCC(=O)Nc2sc3c(c2-c2nc4cnccc4s2)CCNC3)s1 [Compound 185]
56 | < 500 nM | O=C(CCNCc1[nH]nc2c1CNC2)Nc1sc2c(c1-c1nc3cnccc3s1)CCNC2 [Compound 200]
57 | < 500 nM | O=C(CCNCC1CCC1)Nc1sc2c(c1-c1nc3cnccc3s1)CCNC2 [Compound 135]
58 | < 500 nM | NC1CC(NCCC(=O)Nc2sc3c(c2-c2nc4cnccc4s2)CCNC3)C1 (stereo not drawn) [Compound 195]
59 | < 500 nM | CN(C)[C@H]1CCN(CCC(=O)Nc2sc3c(c2-c2nc4cnccc4s2)CCNC3)C1 [Compound 150]
60 | < 500 nM | O=C(CCNCC1CCOCC1)Nc1sc2c(c1-c1nc3cnccc3s1)CCNC2 [Compound 189]
